From patent US20260295053A1, “COMPOUNDS FOR DEGRADATION AND INHIBITION OF KRAS (G12D) PROTEIN” (Shenzhen Ionova Life Science Co., Ltd., priority 2023, published 2026)

What was measured:
AsPC-1 cells = assay: AsPC-1 cell proliferation assay (CellTiter Glo); format: cell-based; conditions: Homo sapiens, ASPC1, 144 h, 6 days
In short: (§1)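 AsPC-1 cells: for degradation, grown to ~90% confluency, treated 24 h with 1:3 compound series ([…] to 1.5 nM), then fixed and immunostained for KRAS G12D and β-actin, read by infrared fluorescence, DC50 fitted. Proliferation: 3,500 cells/well, 6-day treatment, CellTiter Glo luminescence, IC50 fitted.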

KRAS (G12D) = target: T1, KRAS (G12D) (Homo sapiens, UniProt P01116, G12D); assay: KRAS (G12D) cellular degradation assay in AsPC-1 cells; format: cell-based; conditions: 24 hours, antibody fluorescence (Odyssey CLX), DC50 half-maximal degradation concentration
T1 construct: in-cell western with KRAS G12D antibody after 24 h
T1 sequence (P01116 1-188 isoform P01116-2 G12D): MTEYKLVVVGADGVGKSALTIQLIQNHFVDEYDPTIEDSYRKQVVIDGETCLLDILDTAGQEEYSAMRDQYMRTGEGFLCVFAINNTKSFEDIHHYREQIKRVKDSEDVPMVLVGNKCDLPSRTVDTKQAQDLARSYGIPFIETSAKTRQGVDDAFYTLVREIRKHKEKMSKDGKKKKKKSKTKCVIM
In short: as §1

| SMILES | IC50 (AsPC-1 cells) [nM] | DC50 (KRAS (G12D)) [nM] |
| --- | --- | --- |
| Cc1ncsc1-c1ccc([C@H](CO)NC(=O)[C@@H]2C[C@@H](O)CN2C(=O)[C@H](C(C)C)n2cc(-c3ccc(COc4c(-c5c(C)c(F)c(F)c6[nH]ncc56)c(C5CC5)cc5c(N6C[C@@H]7C[C@H]6CN7)nc(OC6CCOCC6)nc45)cc3)nn2)cc1 [Example 76, (2S,4R)-1-((2S)-2-(4-(4-(((4-((1S,4S)-2,5-diazabicyclo[2.2.1]heptan-2-yl)-6-cyclopropyl-7-(6,7-difluoro-5-methyl-1H-indazol-4-yl)-2-((tetrahydro-2H-pyran-4-yl)oxy)quinazolin-8-yl)oxy)methyl)phenyl)-1H-1,2,3-triazol-1-yl)-3-methylbutanoyl)-4-hydroxy-N—((R)-2-hydroxy-1-(4-(4-methylthiazol-5-yl)phenyl)ethyl)pyrrolidine-2-carboxamide] | < 10 | < 10 |
| CCn1nccc1-c1ccc([C@@H](NC(=O)[C@@H]2C[C@@H](O)CN2C(=O)[C@H](C(C)C)n2cc(-c3ccc(COc4c(-c5c(C)c(F)cc6[nH]ncc56)c(C5CC5)cc5c(N6C[C@@H]7C[C@H]6CN7)nc(OC[C@H](C)OC)nc45)cc3)nn2)[C@@H](O)C(C)C)cc1 [Example 95, (2S,4R)-1-((2S)-2-(4-(4-(((4-((1S,4S)-2,5-diazabicyclo[2.2.1]heptan-2-yl)-6-cyclopropyl-7-(6-fluoro-5-methyl-1H-indazol-4-yl)-2-((S)-2-methoxypropoxy)quinazolin-8-yl)oxy)methyl)phenyl)-1H-1,2,3-triazol-1-yl)-3-methylbutanoyl)-N-((1R,2S)-1-(4-(1-ethyl-1H-pyrazol-5-yl)phenyl)-2-hydroxy-3-methylbutyl)-4-hydroxypyrrolidine-2-carboxamide] | < 10 | < 10 |
| CCn1nccc1-c1ccc([C@@H](NC(=O)[C@@H]2C[C@@H](O)CN2C(=O)[C@H](C(C)C)n2cc(-c3ccc(COc4c(-c5c(C)c(F)cc6[nH]ncc56)c(C5CCC5)cc5c(N6C[C@@H]7C[C@H]6CN7)nc(OC[C@H](C)OC)nc45)cc3)nn2)[C@@H](C)O)cc1 [Example 128, (2S,4R)-1-((2S)-2-(4-(4-(((4-((1S,4S)-2,5-diazabicyclo[2.2.1]heptan-2-yl)-6-cyclobutyl-7-(6-fluoro-5-methyl-1H-indazol-4-yl)-2-((S)-2-methoxypropoxy)quinazolin-8-yl)oxy)methyl)phenyl)-1H-1,2,3-triazol-1-yl)-3-methylbutanoyl)-N-((1R,2R)-1-(4-(1-ethyl-1H-pyrazol-5-yl)phenyl)-2-hydroxypropyl)-4-hydroxypyrrolidine-2-carboxamide] | < 10 | 10 to 100 |
| CCn1nccc1-c1ccc([C@@H](NC(=O)[C@@H]2C[C@@H](O)CN2C(=O)[C@H](C(C)C)n2cc(-c3ccc(COc4c(-c5c(C)c(F)cc6[nH]ncc56)c(C5CC5)cc5c(N6C[C@@H]7C[C@H]6CN7)nc(OCC(OC)C(F)F)nc45)cc3)nn2)[C@H](C)O)cc1 (stereo partly drawn) [Example 119, (2S,4R)-1-((2S)-2-(4-(4-(((4-((1S,4S)-2,5-diazabicyclo[2.2.1]heptan-2-yl)-6-cyclopropyl-2-(3,3-difluoro-2-methoxypropoxy)-7-(6-fluoro-5-methyl-1H-indazol-4-yl)quinazolin-8-yl)oxy)methyl)phenyl)-1H-1,2,3-triazol-1-yl)-3-methylbutanoyl)-N-((1R,2S)-1-(4-(1-ethyl-1H-pyrazol-5-yl)phenyl)-2-hydroxypropyl)-4-hydroxypyrrolidine-2-carboxamide] | < 10 | < 10 |
